Measurements: publication PMC3639963, “A New Class of Small Molecule Inhibitor of BMP Signaling” (PLoS ONE, 2013)

Assays:
Assay in all cases: DSF thermal shift
Format in all cases: binding
Conditions in all cases: 10 µM inhibitor; read-out: Tm shift
[1] = target: T1, AKT3 (Homo sapiens, UniProt Q9Y243)
T1 construct: purchased Nanosyn (enzymatic panel); SGC in-house recombinant human kinases (DSF panel); Invitrogen (ALK1-6)
Method in brief: (§1)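 Each recombinant human kinase (1–2 µM) was mixed with inhibitor at 10 µM. Samples were then heated in a real-time PCR machine to record protein melting.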

[2] = target: T2, ALK3 (Homo sapiens, UniProt P36894)
T2 construct: purchased Nanosyn (enzymatic panel); SGC in-house recombinant human kinases (DSF panel); Invitrogen (ALK1-6)
Method in brief: as §1

[3] = target: T3, BMPRII (Homo sapiens, UniProt Q13873)
T3 construct: purchased Nanosyn (enzymatic panel); SGC in-house recombinant human kinases (DSF panel); Invitrogen (ALK1-6)
Method in brief: as §1

[4] = target: T4, BMX (Homo sapiens, UniProt P51813)
T4 construct: purchased Nanosyn (enzymatic panel); SGC in-house recombinant human kinases (DSF panel); Invitrogen (ALK1-6)
T4 sequence (P51813 1-675): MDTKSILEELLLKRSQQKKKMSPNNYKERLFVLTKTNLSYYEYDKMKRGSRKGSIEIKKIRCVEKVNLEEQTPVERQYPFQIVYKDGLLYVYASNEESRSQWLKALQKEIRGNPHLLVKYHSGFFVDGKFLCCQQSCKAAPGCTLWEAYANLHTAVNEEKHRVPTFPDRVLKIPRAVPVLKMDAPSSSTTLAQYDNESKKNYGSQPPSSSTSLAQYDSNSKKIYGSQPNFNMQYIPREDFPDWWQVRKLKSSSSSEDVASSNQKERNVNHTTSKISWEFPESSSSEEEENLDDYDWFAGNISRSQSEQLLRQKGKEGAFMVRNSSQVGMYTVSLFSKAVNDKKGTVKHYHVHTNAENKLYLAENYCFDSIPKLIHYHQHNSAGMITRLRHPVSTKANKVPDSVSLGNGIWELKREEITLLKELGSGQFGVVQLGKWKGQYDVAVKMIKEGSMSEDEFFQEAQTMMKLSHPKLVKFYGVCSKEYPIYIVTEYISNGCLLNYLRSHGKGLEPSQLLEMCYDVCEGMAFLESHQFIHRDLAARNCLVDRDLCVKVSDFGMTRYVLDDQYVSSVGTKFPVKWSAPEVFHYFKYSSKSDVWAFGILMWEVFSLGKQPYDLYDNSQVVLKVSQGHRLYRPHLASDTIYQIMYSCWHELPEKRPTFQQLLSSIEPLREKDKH
Method in brief: as §1

[5] = target: T5, CDK8 (Homo sapiens, UniProt P49336)
T5 construct: purchased Nanosyn (enzymatic panel); SGC in-house recombinant human kinases (DSF panel); Invitrogen (ALK1-6)
Method in brief: as §1

[6] = target: T6, CDKL1 (Homo sapiens, UniProt Q00532)
T6 construct: purchased Nanosyn (enzymatic panel); SGC in-house recombinant human kinases (DSF panel); Invitrogen (ALK1-6)
Method in brief: as §1

[7] = target: T7, CK1ε (Homo sapiens, UniProt P49674)
T7 construct: purchased Nanosyn (enzymatic panel); SGC in-house recombinant human kinases (DSF panel); Invitrogen (ALK1-6)
Method in brief: as §1

[8] = target: T8, CK2α1 (Homo sapiens, UniProt P68400)
T8 construct: purchased Nanosyn (enzymatic panel); SGC in-house recombinant human kinases (DSF panel); Invitrogen (ALK1-6)
Method in brief: as §1

[9] = target: T9, CLK1 (Homo sapiens, UniProt P49759)
T9 construct: purchased Nanosyn (enzymatic panel); SGC in-house recombinant human kinases (DSF panel); Invitrogen (ALK1-6)
Method in brief: as §1

[10] = target: T10, DCAMKL1 (Homo sapiens, UniProt O15075)
T10 construct: purchased Nanosyn (enzymatic panel); SGC in-house recombinant human kinases (DSF panel); Invitrogen (ALK1-6)
Method in brief: as §1

[11] = target: T11, DRAK1 (Homo sapiens, UniProt Q9UEE5)
T11 construct: purchased Nanosyn (enzymatic panel); SGC in-house recombinant human kinases (DSF panel); Invitrogen (ALK1-6)
Method in brief: as §1

[12] = target: T12, PKCη (Homo sapiens, UniProt P24723)
T12 construct: purchased Nanosyn (enzymatic panel); SGC in-house recombinant human kinases (DSF panel); Invitrogen (ALK1-6)
Method in brief: as §1

[13] = target: T13, PKMYT1 (Homo sapiens, UniProt Q99640)
T13 construct: purchased Nanosyn (enzymatic panel); SGC in-house recombinant human kinases (DSF panel); Invitrogen (ALK1-6)
Method in brief: as §1

[14] = target: T14, PRKX (Homo sapiens, UniProt P51817)
T14 construct: purchased Nanosyn (enzymatic panel); SGC in-house recombinant human kinases (DSF panel); Invitrogen (ALK1-6)
T14 sequence (P51817 1-358): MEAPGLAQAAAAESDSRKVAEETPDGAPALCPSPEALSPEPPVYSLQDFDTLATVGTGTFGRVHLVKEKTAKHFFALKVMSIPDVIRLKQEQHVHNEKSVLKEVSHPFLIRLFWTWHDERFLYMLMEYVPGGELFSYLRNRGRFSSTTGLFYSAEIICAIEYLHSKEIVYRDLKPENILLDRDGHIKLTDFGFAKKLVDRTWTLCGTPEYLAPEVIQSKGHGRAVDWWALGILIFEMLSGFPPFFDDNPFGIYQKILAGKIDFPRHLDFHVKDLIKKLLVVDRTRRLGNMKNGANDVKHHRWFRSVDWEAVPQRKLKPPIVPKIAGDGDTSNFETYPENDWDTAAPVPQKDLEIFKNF
Method in brief: as §1

[15] = target: T15, TNIK (Homo sapiens, UniProt Q9UKE5)
T15 construct: purchased Nanosyn (enzymatic panel); SGC in-house recombinant human kinases (DSF panel); Invitrogen (ALK1-6)
Method in brief: as §1

[16] = target: T16, TTK (Homo sapiens, UniProt P33981)
T16 construct: purchased Nanosyn (enzymatic panel); SGC in-house recombinant human kinases (DSF panel); Invitrogen (ALK1-6)
T16 sequence (P33981 1-857): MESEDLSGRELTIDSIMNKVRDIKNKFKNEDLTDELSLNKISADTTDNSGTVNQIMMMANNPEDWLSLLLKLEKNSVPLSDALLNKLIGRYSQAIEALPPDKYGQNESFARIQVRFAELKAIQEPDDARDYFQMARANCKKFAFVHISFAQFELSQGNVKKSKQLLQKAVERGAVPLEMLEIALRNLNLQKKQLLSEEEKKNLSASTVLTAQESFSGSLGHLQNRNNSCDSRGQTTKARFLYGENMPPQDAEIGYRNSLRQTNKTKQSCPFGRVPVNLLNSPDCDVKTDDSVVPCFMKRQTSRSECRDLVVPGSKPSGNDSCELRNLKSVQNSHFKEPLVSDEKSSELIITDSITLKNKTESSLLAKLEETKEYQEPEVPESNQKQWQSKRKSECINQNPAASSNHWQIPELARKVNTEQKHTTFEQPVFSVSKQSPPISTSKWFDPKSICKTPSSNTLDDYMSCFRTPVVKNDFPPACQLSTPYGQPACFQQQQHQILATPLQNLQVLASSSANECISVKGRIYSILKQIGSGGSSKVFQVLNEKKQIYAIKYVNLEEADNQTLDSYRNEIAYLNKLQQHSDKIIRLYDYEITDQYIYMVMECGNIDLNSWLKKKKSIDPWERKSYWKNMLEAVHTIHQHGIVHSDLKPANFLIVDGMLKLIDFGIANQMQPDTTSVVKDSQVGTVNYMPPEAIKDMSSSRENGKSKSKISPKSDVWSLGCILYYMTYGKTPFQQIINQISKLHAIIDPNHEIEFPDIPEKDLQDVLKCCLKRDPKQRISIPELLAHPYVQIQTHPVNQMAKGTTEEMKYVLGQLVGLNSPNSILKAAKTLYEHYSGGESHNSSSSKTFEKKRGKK
Method in brief: as §1

[17] = target: T17, VRK1 (Homo sapiens, UniProt Q99986)
T17 construct: purchased Nanosyn (enzymatic panel); SGC in-house recombinant human kinases (DSF panel); Invitrogen (ALK1-6)
Method in brief: as §1

[18] = target: T18, ZAK (Homo sapiens, UniProt Q9NYL2)
T18 construct: purchased Nanosyn (enzymatic panel); SGC in-house recombinant human kinases (DSF panel); Invitrogen (ALK1-6)
Method in brief: as §1

T10 sequence (O15075 whole entry): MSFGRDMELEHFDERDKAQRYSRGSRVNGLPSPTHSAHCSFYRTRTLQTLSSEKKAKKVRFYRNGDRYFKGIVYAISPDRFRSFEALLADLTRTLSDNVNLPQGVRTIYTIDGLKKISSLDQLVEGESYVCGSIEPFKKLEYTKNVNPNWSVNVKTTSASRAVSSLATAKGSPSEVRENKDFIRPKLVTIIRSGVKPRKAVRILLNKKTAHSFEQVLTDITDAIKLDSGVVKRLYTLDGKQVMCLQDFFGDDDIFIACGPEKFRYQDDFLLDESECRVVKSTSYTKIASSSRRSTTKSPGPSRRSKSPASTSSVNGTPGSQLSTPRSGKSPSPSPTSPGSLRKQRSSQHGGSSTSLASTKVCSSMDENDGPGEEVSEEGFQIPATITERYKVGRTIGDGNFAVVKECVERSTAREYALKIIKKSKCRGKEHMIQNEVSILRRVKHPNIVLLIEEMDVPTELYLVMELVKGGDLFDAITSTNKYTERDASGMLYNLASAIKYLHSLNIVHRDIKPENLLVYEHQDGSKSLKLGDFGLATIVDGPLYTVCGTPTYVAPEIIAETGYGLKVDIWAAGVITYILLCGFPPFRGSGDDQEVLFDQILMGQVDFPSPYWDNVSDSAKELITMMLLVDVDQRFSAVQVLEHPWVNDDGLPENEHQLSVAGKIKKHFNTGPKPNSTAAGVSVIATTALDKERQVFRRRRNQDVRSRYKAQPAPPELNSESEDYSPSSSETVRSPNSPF
T7 sequence (P49674 whole entry): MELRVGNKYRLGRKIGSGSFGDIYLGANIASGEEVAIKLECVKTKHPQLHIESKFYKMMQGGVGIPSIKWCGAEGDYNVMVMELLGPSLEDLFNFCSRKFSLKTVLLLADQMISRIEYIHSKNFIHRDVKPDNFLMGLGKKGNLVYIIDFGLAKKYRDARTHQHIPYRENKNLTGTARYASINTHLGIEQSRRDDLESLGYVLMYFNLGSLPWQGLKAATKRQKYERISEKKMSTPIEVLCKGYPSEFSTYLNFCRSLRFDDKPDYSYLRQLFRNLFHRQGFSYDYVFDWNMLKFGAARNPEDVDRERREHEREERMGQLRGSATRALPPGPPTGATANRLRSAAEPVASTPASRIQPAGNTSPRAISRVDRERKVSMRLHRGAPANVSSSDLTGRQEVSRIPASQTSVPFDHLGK
T12 sequence (P24723 whole entry): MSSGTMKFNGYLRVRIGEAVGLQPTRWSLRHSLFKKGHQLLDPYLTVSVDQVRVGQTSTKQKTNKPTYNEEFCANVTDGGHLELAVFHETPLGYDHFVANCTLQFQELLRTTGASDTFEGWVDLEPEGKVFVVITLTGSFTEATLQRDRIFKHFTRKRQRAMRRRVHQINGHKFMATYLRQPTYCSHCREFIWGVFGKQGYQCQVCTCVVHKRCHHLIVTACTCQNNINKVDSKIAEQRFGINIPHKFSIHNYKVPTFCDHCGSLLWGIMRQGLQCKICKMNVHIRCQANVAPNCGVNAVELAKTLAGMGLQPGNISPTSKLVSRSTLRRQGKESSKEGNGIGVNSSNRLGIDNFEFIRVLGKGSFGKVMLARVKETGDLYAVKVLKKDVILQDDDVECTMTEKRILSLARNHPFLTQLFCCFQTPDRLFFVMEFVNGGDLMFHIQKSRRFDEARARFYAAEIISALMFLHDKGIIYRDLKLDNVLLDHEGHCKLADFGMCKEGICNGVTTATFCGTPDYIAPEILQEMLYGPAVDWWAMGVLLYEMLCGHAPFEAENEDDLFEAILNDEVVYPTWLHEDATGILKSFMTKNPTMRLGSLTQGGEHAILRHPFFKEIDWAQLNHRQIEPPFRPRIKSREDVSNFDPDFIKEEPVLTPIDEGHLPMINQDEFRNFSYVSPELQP
T9 sequence (P49759 whole entry): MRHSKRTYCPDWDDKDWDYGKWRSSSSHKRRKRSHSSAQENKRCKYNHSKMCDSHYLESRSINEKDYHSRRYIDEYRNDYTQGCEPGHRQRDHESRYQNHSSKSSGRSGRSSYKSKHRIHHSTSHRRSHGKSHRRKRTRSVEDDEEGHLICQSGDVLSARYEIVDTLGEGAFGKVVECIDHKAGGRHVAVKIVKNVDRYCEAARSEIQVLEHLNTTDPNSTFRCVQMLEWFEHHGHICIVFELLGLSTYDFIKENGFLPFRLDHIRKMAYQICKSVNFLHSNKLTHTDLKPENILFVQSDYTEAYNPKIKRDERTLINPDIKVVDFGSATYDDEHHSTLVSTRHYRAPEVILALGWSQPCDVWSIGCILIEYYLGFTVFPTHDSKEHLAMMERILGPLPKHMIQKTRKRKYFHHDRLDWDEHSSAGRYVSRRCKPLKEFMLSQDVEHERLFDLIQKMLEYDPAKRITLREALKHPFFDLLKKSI
T18 sequence (Q9NYL2 whole entry): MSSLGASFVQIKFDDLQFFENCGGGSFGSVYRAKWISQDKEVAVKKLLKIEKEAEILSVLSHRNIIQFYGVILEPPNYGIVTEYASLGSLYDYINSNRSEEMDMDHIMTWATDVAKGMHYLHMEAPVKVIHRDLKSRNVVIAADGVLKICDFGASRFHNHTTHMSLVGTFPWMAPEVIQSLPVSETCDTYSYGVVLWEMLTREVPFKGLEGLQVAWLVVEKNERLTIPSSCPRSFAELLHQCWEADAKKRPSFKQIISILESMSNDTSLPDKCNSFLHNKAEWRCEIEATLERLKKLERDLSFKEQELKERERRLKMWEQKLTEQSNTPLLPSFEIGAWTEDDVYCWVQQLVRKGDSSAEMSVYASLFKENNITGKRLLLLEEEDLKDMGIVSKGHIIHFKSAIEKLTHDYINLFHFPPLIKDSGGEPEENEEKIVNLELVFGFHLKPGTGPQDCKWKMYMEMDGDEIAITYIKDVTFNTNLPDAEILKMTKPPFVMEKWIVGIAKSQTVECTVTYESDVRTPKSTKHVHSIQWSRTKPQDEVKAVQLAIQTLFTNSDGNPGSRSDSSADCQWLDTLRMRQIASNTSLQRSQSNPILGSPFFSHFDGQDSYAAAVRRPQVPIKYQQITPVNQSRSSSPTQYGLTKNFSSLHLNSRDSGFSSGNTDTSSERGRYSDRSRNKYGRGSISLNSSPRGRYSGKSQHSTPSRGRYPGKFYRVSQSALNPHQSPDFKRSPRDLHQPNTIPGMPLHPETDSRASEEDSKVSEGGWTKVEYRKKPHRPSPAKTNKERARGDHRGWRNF
T6 sequence (Q00532 whole entry): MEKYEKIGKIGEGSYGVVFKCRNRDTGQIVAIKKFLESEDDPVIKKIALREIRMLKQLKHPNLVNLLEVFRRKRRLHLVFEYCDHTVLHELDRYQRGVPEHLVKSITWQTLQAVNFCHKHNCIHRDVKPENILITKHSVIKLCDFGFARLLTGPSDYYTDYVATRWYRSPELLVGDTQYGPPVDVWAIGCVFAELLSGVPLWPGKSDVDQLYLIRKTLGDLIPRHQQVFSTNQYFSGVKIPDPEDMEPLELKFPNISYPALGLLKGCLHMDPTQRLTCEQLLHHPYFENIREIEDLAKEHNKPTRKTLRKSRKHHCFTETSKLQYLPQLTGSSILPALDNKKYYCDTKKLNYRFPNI
T13 sequence (Q99640 whole entry): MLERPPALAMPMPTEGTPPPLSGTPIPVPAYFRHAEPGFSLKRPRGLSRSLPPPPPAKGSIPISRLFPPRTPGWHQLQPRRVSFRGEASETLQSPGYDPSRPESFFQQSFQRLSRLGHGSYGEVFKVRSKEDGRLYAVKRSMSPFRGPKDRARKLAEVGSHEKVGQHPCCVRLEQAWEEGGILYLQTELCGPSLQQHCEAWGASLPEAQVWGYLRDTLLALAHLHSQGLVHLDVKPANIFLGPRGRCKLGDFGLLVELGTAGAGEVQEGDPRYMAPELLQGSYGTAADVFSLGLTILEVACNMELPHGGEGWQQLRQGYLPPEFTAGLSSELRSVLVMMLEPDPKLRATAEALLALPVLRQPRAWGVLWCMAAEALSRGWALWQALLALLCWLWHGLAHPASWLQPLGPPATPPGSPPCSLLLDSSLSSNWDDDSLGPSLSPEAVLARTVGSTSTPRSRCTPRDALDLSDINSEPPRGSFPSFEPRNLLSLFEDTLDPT
T1 sequence (Q9Y243 whole entry): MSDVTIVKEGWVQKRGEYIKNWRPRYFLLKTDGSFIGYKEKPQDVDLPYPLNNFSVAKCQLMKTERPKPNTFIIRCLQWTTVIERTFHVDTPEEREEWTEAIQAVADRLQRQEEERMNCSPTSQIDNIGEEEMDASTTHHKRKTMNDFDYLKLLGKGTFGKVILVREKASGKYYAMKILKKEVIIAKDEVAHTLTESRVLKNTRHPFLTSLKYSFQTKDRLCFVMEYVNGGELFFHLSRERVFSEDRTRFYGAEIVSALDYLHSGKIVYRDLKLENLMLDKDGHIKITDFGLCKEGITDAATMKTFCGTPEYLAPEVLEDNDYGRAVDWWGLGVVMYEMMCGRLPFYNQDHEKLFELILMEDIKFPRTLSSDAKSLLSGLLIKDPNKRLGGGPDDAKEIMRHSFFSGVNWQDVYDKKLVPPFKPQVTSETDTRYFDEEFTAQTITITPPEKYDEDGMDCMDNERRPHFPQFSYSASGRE
T17 sequence (Q99986 whole entry): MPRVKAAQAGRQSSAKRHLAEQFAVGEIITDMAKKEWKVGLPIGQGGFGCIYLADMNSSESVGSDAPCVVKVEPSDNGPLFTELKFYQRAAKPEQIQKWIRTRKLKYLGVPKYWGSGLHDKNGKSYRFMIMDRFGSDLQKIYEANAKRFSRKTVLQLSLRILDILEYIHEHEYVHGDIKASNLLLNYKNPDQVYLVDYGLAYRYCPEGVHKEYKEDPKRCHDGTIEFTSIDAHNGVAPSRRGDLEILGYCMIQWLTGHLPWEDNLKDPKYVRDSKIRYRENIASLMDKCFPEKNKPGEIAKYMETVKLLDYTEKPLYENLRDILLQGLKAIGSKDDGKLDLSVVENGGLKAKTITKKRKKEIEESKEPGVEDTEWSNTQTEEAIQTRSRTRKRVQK

| Compound | ΔTm at 10 µM [1] | ΔTm at 10 µM [2] | ΔTm at 10 µM [3] | ΔTm at 10 µM [4] | ΔTm at 10 µM [5] | ΔTm at 10 µM [6] | ΔTm at 10 µM [7] | ΔTm at 10 µM [8] | ΔTm at 10 µM [9] | ΔTm at 10 µM [10] | ΔTm at 10 µM [11] | ΔTm at 10 µM [12] | ΔTm at 10 µM [13] | ΔTm at 10 µM [14] | ΔTm at 10 µM [15] | ΔTm at 10 µM [16] | ΔTm at 10 µM [17] | ΔTm at 10 µM [18] |
| --- | --- | --- | --- | --- | --- | --- | --- | --- | --- | --- | --- | --- | --- | --- | --- | --- | --- | --- |
| COc1cc(-c2cc(-c3cccc(O)c3)cnc2N)cc(OC)c1OC [K02288, 3-[6-amino-5-(3,4,5-trimethoxy-phenyl)-pyridin-3-yl]-phenol] | 0.5 °C | 12.8 °C | 3.5 °C | 1 °C | 0.1 °C | 0 °C | 4.5 °C | 0.3 °C | -0.1 °C | 0.1 °C | 1 °C | 1.2 °C | -0.4 °C | 0.2 °C | 6.1 °C | 1.1 °C | 0.5 °C | -0.1 °C |
| c1cc(-c2cnn3cc(-c4ccc(OCCN5CCCCC5)cc4)cnc23)ccn1 [Dorsomorphin] | 0.5 °C |  | 1.5 °C | 1.4 °C | 0.5 °C | 2 °C | 5.9 °C | 3.8 °C | 8.3 °C | 0.3 °C | 9 °C | 0.9 °C | 0.1 °C | 2.9 °C | 4.2 °C | 1 °C | 0.4 °C | 0.5 °C |
| c1ccc2c(-c3cnn4cc(-c5ccc(N6CCNCC6)cc5)cnc34)ccnc2c1 [LDN-193189] |  | 14 °C |  |  |  |  |  |  |  |  |  |  |  |  |  |  |  |  |
